Data on 2 compounds can be found in US7985415B2, “Medical devices employing novel polymers” (Rutgers, The State University of New Jersey, priority 1997, dated 2011).

SMILES strings stand for the structures.

In this data set the test system is coronary arteries. Kind of data set: Swine stent model: coated stents implanted in coronary arteries, light microscopy and morphometry. The settings on record: for Stenosis (%): (Neointimal Area/IEL Area)x100; for EEL Area / IEL Area / Intimal Area / Intimal Thick. / Lumen Area: PolySAID II coating alone or with 20% added drug by weight. An excerpt:
A total of 8 stents were implanted in the coronary arteries of 3 miniswine for 28 days. The stent implants were Polymerix [nicknamed MARGI] 15 mm in length with an unexpanded diameter of 1.6 mm.
All stents were processed for light microscopic evaluation. Before processing, the vessels and hearts were x-rayed to locate and assess stent placement. For processing, the stented vessel segments were dehydrated in a graded series of ethanol and embedded in methylmethacrylate plastic. After polymerization, two to three millimeter sections were sawed from the proximal, mid and distal portions of each stent. Sections from the stents were cut on a rotary microtome at four to five microns, mounted and stained with hematoxylin and eosin and elastic Van Gieson stains. All sections were examined by light microscopy for the presence of inflammation, thrombus, neointimal formation, vessel wall injury and potential localized toxic effects associated with drug-coated stents.
Myocardial sections were taken from the anterior, lateral, posterior and septal walls of the left ventricle distal to the stent and from the apical region of the left ventricle. To determine localized affects of the polymer and/or drug, the myocardium was also sampled beneath the area of stent placement. All sections were cut at 4-6 microns; mounted and stained with hematoxylin and eosin and examined for the presence of infarct, thromboembolus and inflammation.
A vessel injury score was calculated according to the Schwartz method. The cross-sectional areas (external elastic lamina [EEL], internal elastic lamina [IEL] and lumen) of each section were measured with digital morphometry. Neointimal thickness was measured as the distance from the inner surface of each stent strut to the luminal border. Percent area stenosis was calculated with the formula [(Neointimal Area/IEL Area)×100]. Ordinal data was also collected for fibrin deposition and inflammation and hemorrhage around the stent struts and percent endothelialization of the lumen surfaces. Values are expressed as mean±SD. Mean variables were compared between the groups with the use of ANOVA with Fishers Post Hoc Correction for analysis of the data. A value of P≦0.05 was considered statistically significant.

Where [1] appears, read: miniswine coronary arteries, stents 28 days.

Take `CO[C@H]1C[C@@H]2CC[C@@H](C)[C@@](O)(O2)C(=O)C(=O)N2CCCC[C@H]2C(=O)O[C@H]([C@H](C)C[C@@H]2CC[C@@H](O)[C@H](OC)C2)CC(=O)[C@H](C)/C=C(\C)[C@@H](O)[C@@H](OC)C(=O)[C@H](C)C[C@H](C)/C=C/C=C/C=C/1C` [Sirolimus, sirolimus]: the “light microscopy findings (vessel healing, neointima)” value (in vivo) was “less neointimal growth and were more healed than those coated with paclitaxel”. For the same compound, under setting [1], the “Stenosis (%)” value is reported as 20.31 ± 10.1%, the “EEL Area” value worked out at 6.07 ± 0.61 mm2, the “IEL Area” value was found to be 4.78 ± 0.39 mm2 and the “Intimal Area” value is 0.96 ± .50 mm2. In addition, under setting [1], the “Intimal Thick.” value is listed as 0.10 ± 0.05 mm and the “Lumen Area” value is reported as 3.81 ± 0.62 mm2. For the setting “miniswine, in vivo, 28 days”, the “% Struts (Fibrin)” value is on record as 57.78 ± 43.47%, the “% Struts Hemorrhage” value was determined as 28.33 ± 30.14%, the “% Struts with underlying medial necrosis” value is reported as 0.68 ± 0.68% and the “Ave Inflammation score” value amounted to 2.3 ± 0.58. For the same compound, the “Injury Score” value (miniswine, in vivo, 28 days) was 0.45 ± 0.69.
Regarding `CC(=O)O[C@H]1C(=O)[C@@]2(C)[C@H]([C@H](OC(=O)c3ccccc3)[C@]3(O)C[C@H](OC(=O)[C@H](O)[C@@H](NC(=O)c4ccccc4)c4ccccc4)C(C)=C1C3(C)C)[C@]1(OC(C)=O)CO[C@@H]1C[C@@H]2O` [Paclitaxel, paclitaxel], under setting [1], the “% Struts (Fibrin)” value turned out to be 100%, the “% Struts Hemorrhage” value was 100%, the “% Struts with underlying medial necrosis” value was determined as 8.67 ± 3.51% and the “Ave Inflammation score” value is on record as 2.0. In addition, under setting [1], the “light microscopy findings (vessel healing, neointima)” value is “malapposition with underlying medial necrosis with extensive accumulation of fibrin, hemorrhage, and inflammatory cells around the stent struts”; the “Stenosis (%)” value was 27.21 ± 17.11%; the “EEL Area” value was 8.41 ± 2.95 mm2; the “IEL Area” value was 6.84 ± 2.56 mm2. Further, under setting [1], the “Intimal Area” value stood at 2.14 ± 2.10 mm2, the “Intimal Thick.” value was 0.05 ± 0.01 mm and the “Lumen Area” value is reported as 4.70 ± 0.64 mm2. In addition, the “Injury Score” value (miniswine coronary arteries, stents 28 days, Schwartz method) is 0.35 ± 0.48.
